Measured values reported in patent US20200308220A1, “AROMATIC-CATIONIC PEPTIDES CONJUGATED TO AN[…] THEIR USE IN TREATING COMPLEX REGIONAL PAIN SYNDROME” (priority 2015, published 2020).
Where a SMILES comes first, the peptide text is derived from it.

Legend:
[1] = target: T1, δ receptors (Rattus norvegicus, UniProt P33533); assay: Receptor binding, displacement of [3H]DSLET from rat brain membrane binding sites
T1 construct: from tissue; host or cells: rat brain membranes
Protocol: (§1) Peptide conjugates of Table 5 were tested in functional assays based on inhibition of electrically evoked contractions of the guinea pig ileum (GPI) and the mouse vas deferens (MVD). The GPI assay is representative for μ opioid receptor (MOR) interactions, whereas in the MVD assay opioid effects are primarily mediated by the δ opioid receptor (DOR). The assays were carried out as described in DiMaio et al., J. Med. Chem. (1982) 25, 1432-1438. Binding affinities for μ and δ receptors were determined by displacing, respectively, [^3H]DAMGO and [^3H]DSLET from rat brain membrane binding sites (see Schiller et al., Biochem. Biophys. Res. Commun. (1978) 85, 1332-1338).

[2] = target: T2, δ opioid receptor (DOR) (Mus musculus, UniProt P32300); assay: Inhibition of electrically evoked contractions of the mouse vas deferens (MVD); type: cell-based
T2 construct: the guinea pig ileum (GPI) and the mouse vas deferens (MVD); from tissue; host or cells: mouse vas deferens
T2 sequence (P32300 whole entry): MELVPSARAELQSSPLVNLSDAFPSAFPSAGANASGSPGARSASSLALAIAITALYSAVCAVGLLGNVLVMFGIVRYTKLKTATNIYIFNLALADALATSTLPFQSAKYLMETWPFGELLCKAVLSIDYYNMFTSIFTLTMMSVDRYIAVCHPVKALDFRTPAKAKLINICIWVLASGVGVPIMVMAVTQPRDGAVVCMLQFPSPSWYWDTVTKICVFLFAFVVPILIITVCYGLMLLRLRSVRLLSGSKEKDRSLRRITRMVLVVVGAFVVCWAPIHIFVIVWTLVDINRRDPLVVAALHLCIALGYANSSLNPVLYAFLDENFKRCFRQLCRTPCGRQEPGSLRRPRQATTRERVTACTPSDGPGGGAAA
Protocol: as §1

[3] = tested on: CPIP rats; assay: Chronic post-ischemia pain (CPIP) rat model of CRPS-I, reversal of mechanical allodynia
Protocol: H-Dmt-D-Arg-Phe-Lys(NH-TEMPO)-NH2 was tested in a chronic post-ischemia pain (CPIP) rat model (see Coderre et al., Pain (2004) 112, 94-105) of CRPS-I in comparison with [Dmt^1]DALDA and morphine (subcutaneous (s.c.) administration). The analgesic potencies (ED50 values) of the compounds were determined based on their ability to reverse mechanical allodynia in CPIP rats (Table 6).

[4] = target: T3, μ receptors (Rattus norvegicus, UniProt P33535); assay: Receptor binding, displacement of [3H]DAMGO from rat brain membrane binding sites
T3 construct: from tissue; host or cells: rat brain membranes
T3 sequence (P33535 whole entry): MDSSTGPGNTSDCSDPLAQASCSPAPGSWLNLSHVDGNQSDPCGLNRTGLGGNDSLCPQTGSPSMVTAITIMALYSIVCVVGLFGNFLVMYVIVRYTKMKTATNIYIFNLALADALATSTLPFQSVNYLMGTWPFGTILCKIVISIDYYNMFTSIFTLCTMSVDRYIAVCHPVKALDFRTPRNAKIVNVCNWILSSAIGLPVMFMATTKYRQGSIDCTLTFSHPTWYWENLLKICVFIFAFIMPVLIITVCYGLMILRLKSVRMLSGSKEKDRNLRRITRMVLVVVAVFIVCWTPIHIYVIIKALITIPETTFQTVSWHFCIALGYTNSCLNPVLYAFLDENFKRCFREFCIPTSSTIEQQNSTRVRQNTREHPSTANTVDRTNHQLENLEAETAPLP
Protocol: as §1

T1 sequence (P33533 whole entry): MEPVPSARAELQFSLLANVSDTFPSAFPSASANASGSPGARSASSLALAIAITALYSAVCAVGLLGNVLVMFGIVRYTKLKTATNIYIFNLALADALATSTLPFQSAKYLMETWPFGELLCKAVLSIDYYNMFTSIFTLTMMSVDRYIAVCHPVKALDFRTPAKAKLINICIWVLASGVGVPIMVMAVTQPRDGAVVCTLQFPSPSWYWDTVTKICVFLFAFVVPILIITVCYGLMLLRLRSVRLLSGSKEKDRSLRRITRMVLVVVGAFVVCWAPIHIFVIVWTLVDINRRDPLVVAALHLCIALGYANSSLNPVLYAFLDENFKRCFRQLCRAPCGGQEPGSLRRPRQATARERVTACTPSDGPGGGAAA

SMILES	Ki [1]	IC50 [2]	crossing the blood-brain barrier ([3]; inferred from centrally mediated analgesic effect after s.c. dosing)	Ki [4]	ED50 ± SEM (analgesic potency) ([3]; reversal of mechanical allodynia in CPIP rats, s.c. administration)	ED50 ([3]; Rattus norvegicus, sc, read-out: ED50 ± SEM (analgesic potency))	Potency Ratio ([3]; relative to morphine (=1), CPIP rats, s.c.)
Cc1cc(O)cc(C)c1C[C@H](N)C(=O)N[C@H](CCCNC(=N)N)C(=O)N[C@@H](Cc1ccccc1)C(=O)NC(CCCCNC1CC(C)(C)N([O])C(C)(C)C1)C(N)=O (stereo partly drawn) [H-Dmt-D-Arg-Phe-Lys(NH-TEMPO)-NH2]	30.4 nM	1.15 nM	capable of crossing the blood-brain barrier	0.263 nM	–	–	–
Cc1cc(O)cc(C)c1C[C@H](N)C(=O)N[C@H](CCCNC(=N)N)C(=O)N[C@@H](Cc1ccccc1)C(=O)N[C@@H](CCCCNC(=O)[C@@]1(C)CCc2c(C)c(O)c(C)c(C)c2O1)C(N)=O [H-Dmt-D-Arg-Phe-Lys(Tro[R])-NH2]	3.64 nM	0.847 nM	–	0.273 nM	–	–	–
Cc1cc(O)cc(C)c1C[C@H](N)C(=O)N[C@H](CCCNC(=N)N)C(=O)N[C@@H](Cc1ccccc1)C(=O)N[C@@H](CCCCNC(=O)[C@]1(C)CCc2c(C)c(O)c(C)c(C)c2O1)C(N)=O [H-Dmt-D-Arg-Phe-Lys(Tro[S])-NH2, H-Dmt-D-Arg-Phe-Lys(Tro[S])—NH2]	3.48 nM	3.76 nM	–	0.252 nM	–	–	–
Cc1cc(O)cc(C)c1C[C@H](N)C(=O)N[C@H](CCCNC(=N)N)C(=O)N[C@@H](Cc1ccccc1)C(=O)N[C@@H](CCCCN)C(N)=O [H-Dmt-D-Arg-Phe-Lys-NH2]	–	–	–	–	0.103 ± 0.046 mg/kg	–	–
Cc1cc(O)cc(C)c1C[C@H](N)C(=O)N[C@H](CCCNC(=N)N)C(=O)N[C@@H](Cc1ccccc1)C(=O)N[C@@H](CCCCN)C(=O)NCCC(=O)NC1CC(C)(C)N([O])C(C)(C)C1 [H-Dmt-D-Arg-Phe-Lys-NH—(CH2)2—CO—NH-TEMPO] (HELM PEPTIDE1{[Cc1cc(O)cc(C)c1C[C@H](N)C(=O)[*:2]].[dR].F.K.[bAla].[CC1(C)CC(N[*:1])CC(C)(C)N1[O]]}$$$$V2.0)	2.15 nM	262 nM	–	4.56 nM	–	–	–
CN1CC[C@]23c4c5ccc(O)c4O[C@H]2[C@@H](O)C=C[C@H]3[C@H]1C5 [morphine]	–	–	–	–	–	1.55 ± 0.664 mg/kg	1
